Data published in US8114894B2, “Bicyclic compounds and methods of making and using same” (Nanotherapeutics, Inc., priority 2008, dated 2012).
Counter-ions that a name gives are not always drawn.

Molecular target: T1, human 5-HT4e receptor (Homo sapiens, UniProt Q13639)
T1 construct: expressed in transfected cells; host or cells: CHO cells
Assay: Binding affinity assay, radioligand [3H]GR 113808 binding in transfected CHO cell membrane homogenates
Conditions: 0.3 nM [3H]GR 113808; for Ki: human 5-HT4e receptor in transfected CHO cells, read-out: KI (μM or % inhibition); for inhibition at 0.3 µM: @ 0.3 uM test compound; for inhibition at 0.3 µM / inhibition at 3 µM: read-out: KI (μM or % inhibition): percent inhibition of the control radioligand specific binding; for inhibition at 3 µM: @ 3 uM test compound
Method: The evaluation of the affinity of compounds for the human 5-HT4e receptor in transfected CHO cells was determined in a radioligand binding assay. Experimental protocol: Cell membrane homogenates (140 μg protein) were incubated for […] at 37° C. with 0.3 nM [3H]GR 113808 in the absence or presence of the test compound in a buffer containing 50 mM Hepes/Tris (pH 7.4) and 1 μM pargyline. Nonspecific binding was determined in the presence of 100 μM 5-HT. Following incubation, the samples were filtered rapidly under vacuum through glass fiber filters (GF/B, Packard) presoaked with 0.3% PEI and rinsed several times with ice-cold 50 mM Tris-HCl using a 96-sample cell harvester (Unifilter, Packard). The filters were dried then counted for radioactivity in a scintillation counter (Topcount, Packard) using a scintillation cocktail (Microscint 0, Packard). The results are expressed as a percent inhibition of the control radioligand specific binding at a certain concentration of the test compound. The test compound can also be assessed at several concentrations to obtain a competition curve from which its IC50 and Ki are calculated.

T1 sequence (Q13639 1-378 isoform Q13639-5): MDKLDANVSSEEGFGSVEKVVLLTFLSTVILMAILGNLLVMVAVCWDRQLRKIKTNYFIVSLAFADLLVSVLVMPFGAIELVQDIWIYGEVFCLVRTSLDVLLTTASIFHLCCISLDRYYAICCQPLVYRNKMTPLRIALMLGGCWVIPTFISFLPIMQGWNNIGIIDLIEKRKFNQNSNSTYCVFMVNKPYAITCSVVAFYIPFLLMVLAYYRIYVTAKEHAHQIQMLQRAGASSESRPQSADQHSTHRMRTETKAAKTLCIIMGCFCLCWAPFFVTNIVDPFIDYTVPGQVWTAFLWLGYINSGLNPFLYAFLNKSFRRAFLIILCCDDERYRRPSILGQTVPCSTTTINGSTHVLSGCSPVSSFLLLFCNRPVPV

Row | SMILES | Ki | inhibition at 0.3 µM | inhibition at 3 µM
1 | CC(C)n1cc(C(=O)C(=O)NCCCN2CCCCC2)c2ccccc21 [Example 1, 2-(1-Isopropyl-1H-indol-3-yl)-2-oxo-N-(3-(piperidin-1-yl)propyl)acetamide hydrochloride] | 0.007 µM | – | –
2 | CC(C)n1cc(C(=O)C(=O)NCCN2CCCCC2)c2ccccc21 [Example 2, 2-(1-Isopropyl-1H-indol-3-yl)-2-oxo-N-(2-(piperidin-1-yl)ethyl)acetamide hydrochloride] | 0.005 µM | – | –
3 | CCN(CC)CCNC(=O)C(=O)c1cn(C(C)C)c2ccccc12 [Example 3, N-(2-(Diethylamino)ethyl)-2-(1-isopropyl-1H-indol-3-yl)-2-oxoacetamide hydrochloride] | 0.008 µM | – | –
4 | CCn1cc(C(=O)C(=O)NCCN2CCCCC2)c2ccccc21 [Example 4, 2-(1-Ethyl-1H-indol-3-yl)-2-oxo-N-(2-(piperidin-1-yl)ethyl)acetamide hydrochloride] | 0.005 µM | – | –
5 | CCC(C)n1cc(C(=O)C(=O)NCCN2CCCCC2)c2ccccc21 (centres unmarked) [Example 5, 2-(1-sec-Butyl-1H-indol-3-yl)-2-oxo-N-(2-(piperidin-1-yl)ethyl)acetamide hydrochloride] | 0.031 µM | – | –
6 | CC(C)n1cc(C(=O)C(=O)NCCN2CCCCC2)c2cc(Cl)ccc21 [Example 6, 2-(5-Chloro-1-isopropyl-1H-indol-3-yl)-2-oxo-N-(2-(piperidin-1-yl)ethyl)acetamide hydrochloride] | 0.047 µM | – | –
7 | CC(C)n1cc(C(=O)C(=O)NCCN2CCCCC2)c2ccc([N+](=O)[O-])cc21 [Example 7, 2-(1-Isopropyl-6-nitro-1H-indol-3-yl)-2-oxo-N-(2-(piperidin-1-yl)ethyl)acetamide hydrochloride] | 2.7 µM | – | –
8 | CC(C)n1cc(C(=O)C(=O)NCCN2CCCCC2)c2ccc(N)cc21 [Example 8, 2-(6-Amino-1-isopropyl-1H-indol-3-yl)-2-oxo-N-(2-(piperidin-1-yl)ethyl)acetamide hydrochloride] | 0.75 µM | – | –
9 | CC(C)n1cc(C(=O)C(=O)NCCN2CCCCC2)c2ccc(N)c(Cl)c21 [Example 9, 2-(6-Amino-7-chloro-1-isopropyl-1H-indol-3-yl)-2-oxo-N-(2-(piperidin-1-yl)ethyl)acetamide hydrochloride] | 0.1 µM | – | –
10 | CC(C)n1cc(C(=O)C(=O)NCCN2CCCC2)c2ccccc21 [Example 10, 2-(1-Isopropyl-1H-indol-3-yl)-2-oxo-N-(2-(pyrrolidin-1-yl)ethyl)acetamide] | 0.013 µM | – | –
11 | COc1ccc2c(c1)c(C(=O)C(=O)NCCN1CCCCC1)cn2C(C)C [Example 11, 2-(1-Isopropyl-5-methoxy-1H-indol-3-yl)-2-oxo-N-(2-(piperidin-1-yl)ethyl)acetamide] | 0.31 µM | – | –
12 | Cc1ccc2c(c1)c(C(=O)C(=O)NCCN1CCCCC1)cn2C(C)C [Example 12, 2-(1-isopropyl-5-methyl-1H-indol-3-yl)-2-oxo-N-(2-(piperidin-1-yl)ethyl)acetamide] | 0.071 µM | – | –
13 | CC(C)n1cc(C(=O)C(=O)NC2CCN(CCCO)CC2)c2ccccc21 [Example 13, N-(1-(3-Hydroxypropyl)piperidin-4-yl)-2-(1-isopropyl-1H-indol-3-yl)-2-oxoacetamide] | 0.0024 µM | – | –
14 | CCCN1CCC(NC(=O)C(=O)c2cn(C(C)C)c3ccccc23)CC1 [Example 14, 2-(1-Isopropyl-1H-indol-3-yl)-2-oxo-N-(1-propylpiperidin-4-yl)acetamide] | 0.0027 µM | – | –
15 | CC(C)CN1CCC(CNC(=O)C(=O)c2cn(C(C)C)c3ccccc23)CC1 [Example 15, N-((1-Isobutylpiperidin-4-yl)methyl)-2-(1-isopropyl-1H-indol-3-yl)-2-oxoacetamide] | 0.016 µM | – | –
16 | CC(C)n1cc(C(=O)C(=O)NCCN2CCC(C(F)(F)F)CC2)c2ccccc21 [Example 16, 2-(1-Isopropyl-1H-indol-3-yl)-2-oxo-N-(2-(4-(trifluoromethyl)piperidin-1-yl)ethyl)acetamide] | 0.023 µM | – | –
17 | CC(C)n1cc(C(=O)C(=O)NCCN2CCCCC2)c2cccnc21 [Example 17, 2-(1-Isopropyl-1H-pyrrolo[2,3-b]pyridin-3-yl)-2-oxo-N-(2-(piperidin-1-yl)ethyl)acetamide] | 0.022 µM | – | –
18 | CCCC1CCN(CCNC(=O)C(=O)c2cn(C(C)C)c3ccccc23)CC1 [Example 18, 2-(1-Isopropyl-1H-indol-3-yl)-2-oxo-N-(2-(4-propylpiperidin-1-yl)ethyl)acetamide TFA salt] | – | 99% | 102%
19 | CCCCN1CCC(NC(=O)C(=O)c2cn(C(C)C)c3ccccc23)CC1 [Example 19, N-(1-Butylpiperidin-4-yl)-2-(1-isopropyl-1H-indol-3-yl)-2-oxoacetamide] | 0.0025 µM | – | –
20 | COCCCN1CCC(NC(=O)C(=O)c2cn(C(C)C)c3ccccc23)CC1 [Example 20, 2-(1-Isopropyl-1H-indol-3-yl)-N-(1-(3-methoxypropyl)piperidin-4-yl)-2-oxoacetamide TFA salt] | 0.0069 µM | – | –
21 | CC(C)n1cc(C(=O)C(=O)NC2CCN(CCNS(C)(=O)=O)CC2)c2ccccc21 [Example 21, 2-(1-Isopropyl-1H-indol-3-yl)-N-(1-(2-(methylsulfonamido)ethyl)piperidin-4-yl)-2-oxoacetamide TFA salt] | – | 95% | 101%
22 | CC(C)n1cc(C(=O)C(=O)NCCN2CCC(CCO)CC2)c2ccccc21 [Example 22, N-(2-(4-(2-Hydroxyethyl)piperidin-1-yl)ethyl)-2-(1-isopropyl-1H-indol-3-yl)-2-oxoacetamide hydrochloride] | – | 99% | 101%
23 | CCC1CCN(CCNC(=O)C(=O)c2cn(C(C)C)c3ccccc23)CC1 [Example 23, N-(2-(4-ethylpiperidin-1-yl)ethyl)-2-(1-isopropyl-1H-indol-3-yl)-2-oxoacetamide hydrochloride] | – | 99% | 101%
24 | CCCCC1CCN(CCNC(=O)C(=O)c2cn(C(C)C)c3ccccc23)CC1 [Example 24, N-(2-(4-Butylpiperidin-1-yl)ethyl)-2-(1-isopropyl-1H-indol-3-yl)-2-oxoacetamide] | – | 95% | 101%
